According to article PMC8828969, “Arylamine N-Acetyltransferase 1 Activity is Regulated by the Protein Acetylation Status” (Frontiers in Pharmacology, 2022):
Read-outs that look alike come from different tables or passages of the source.

How the values were obtained:
HDAC [1] = details: MDA-MB-231 cells, vs vehicle control; for lowest concentration that significantly decreased HDAC deacetylase activity: 48 h
Method: (§1) The next day, cells were treated with increasing concentrations, (0–100 µM) of the inhibitor for 48 h. Following incubation, the enzymatic activity of Sirtuin and HDAC proteins was quantified using the Sirtuin Activity kit (MilliporeSigma, St. Louis, MO, United States), according to manufacturer’s instructions. […] Supernatant was recovered ant kept on ice. Samples were normalized to the lowest protein concentration sample using the Bradford protein assay (Bio-Rad, Hercules, CA, United States). Then, 20 µL of diluted cell lysate were transferred into a 96 well plate, the activity reaction mix was prepared as recommended, and the reaction was incubated for 15 min at 37°C.

NAT1b transcript [2] = test: NAT1b mRNA quantification by qRT-PCR in MDA-MB-231 cells; type: cell-based, human; details: 48 h
Method: (§2) NAT1 mRNA levels were measured as described previously ([Millner et al., 2012]). Primers were designed to recognize only NAT1b expression. Briefly, total RNA was isolated cells lines using the RNeasy Mini kit (Qiagen, Hilden, GER) followed by removal of contaminating DNA by treatment with Turbo DNA-free (Ambion, Austin, TX, United States). cDNA was synthetized using the High-Capacity Reverse transcriptase kit (Life Technologies, Carlsbad, CA, United States) using 1 µg of total RNA in a 20 µL reaction following manufacturer’s instructions.
(§3) MDA-MB-231 or ZR-75-1 cells were plated in 12-well plates, at a density of 2 × 10^5 cells/well and allowed to attach to the plate overnight. […] After 48 h of drug treatment, plates were recovered and the cells were harvested for NAT1 activity assays, NAT1 mRNA and protein expression quantification as described above. For the siRNA transfection experiments, after 72 h of transfection, cells were harvested and processed as described above for the cells treated with inhibitors.

NAT1 [3] = test: NAT1 catalytic activity (PABA N-acetylation, HPLC) in lysate of treated MDA-MB-231 cells; type: cell-based, human; details: for lowest concentration that significantly increased NAT1 N-acetylation of PABA / lowest concentration that significantly decreased NAT1 catalytic activity: MDA-MB-231 cells, 48 h; for Ki: MDA-MB-231 cells treated 48 h, read-out: Ki, decrease of NAT1 catalytic activity (PABA N-acetylation)
Method: (§4) In vitro NAT1 enzymatic activity was quantified towards p-aminobenzoic acid (PABA). N-acetyl-PABA was quantified by High Performance Liquid Chromatography (HPLC) as previously described ([Hein et al., 2006]; [Stepp et al., 2018]). Briefly, cells were scaped from the plate and washed in ice-cold Phosphate Buffered Saline (PBS) and lysed in 20 mM sodium phosphate pH 7.4, 1 mM ethylenediaminetetraacetic acid (EDTA), 0.2% triton X-100, 1 mM dithiothreitol (DTT), 100 µM phenylmethanesulfonyl fluoride (PMSF), 1 μg/ml aprotinin, and 2 µM pepstatin A (MilliporeSigma, St. Louis, MO, United States). Cell lysate was centrifuged at 15,000 × g for 10 min, supernatant was recovered, and protein concentration was quantified as mentioned before. NAT1 enzymatic assay reactions containing 50 µL of suitable cell lysate, 300 µM PABA, and AcCoA (1 mM), were incubated at 37°C for 10 min. Reactions were terminated by the addition of 10 µL of 1 M acetic acid, then proteins were precipitated by centrifugation (15,000 × g for 20 min in the cold room) and supernatant was transferred to HPLC vials and injected onto a LiChrospher 100 RP-18 (125 mm × 4 mm; 5 µm) reverse phase column. Reactants and products were eluted with an Agilent 1260 Infinity II system (Agilent Technologies, Santa Clara, CA, United States). Separation of N-acetyl-PABA was achieved using a gradient of 96:4 of 20 mM sodium perchlorate pH 2.5: acetonitrile (ACN) to 88:12 20 mM sodium perchlorate:ACN over 3 min. Absorbance was recorded at 280 nm. Four independent measurements were performed in duplicate for each cell condition and cell line.
as §3

NAT1 [4] = test: NAT1 catalytic activity (PABA N-acetylation, HPLC) in lysate of treated ZR-75-1 cells; type: cell-based, human; details: for lowest concentration that significantly upregulated NAT1 catalytic activity / lowest concentration that significantly decreased NAT1 catalytic activity: ZR-75-1 cells, 48 h; for Ki: ZR-75-1 cells treated 48 h, read-out: Ki, decrease of NAT1 catalytic activity (PABA N-acetylation)
Method: as §4, §3

Sirtuin = Sirtuin activity in inhibitor-treated cells (Sirtuin Activity kit, lysate fluorescence); type: cell-based, human
Method: as §1

NAT1 [5] = test: NAT1 acetylation status (acetyl-lysine immunoprecipitation, AcNAT1/NAT1) in MDA-MB-231 cells; type: cell-based, human; details: 48 h, vs vehicle
Method: (§5) In order to assess the acetylation status of NAT1 protein, MDA-MB-231(6 × 10^5) and ZR-75-1 (3 × 10^6) cells were seeded onto 100 mm cell culture dishes and allowed to attach overnight. […] After 48-h drug treatment or 72-h siRNA transfection, cells were collected and lysed following the protocol of Signal-Seeker Acetyl-Lysine Detection kit (Citoskeleton, Denver, CO, United States). Briefly, after the incubation period concluded, cells were washed twice with PBS and lysed in ice-cold lysis buffer, 20 mM Tris-HCl (pH 7.4), 5 mM EDTA, 150 mM NaCl, 0.5% Triton X-100, 10 mM sodium butyrate and protease/phosphatase inhibitors cocktail. Cell lysates were incubated on ice for 20 min and isolated by centrifugation at 16,000 × g for 20 min. Supernatants were recovered and protein concentration was measured as described before. 150 µg of lysate was used for the IP; 1/10 of the sample was kept as input control. Thereafter, Acetyl Lysine Affinity Beads were added to the samples and incubated at 4°C for 2 h. Beads were washed three times with the provided wash buffer and the immunoprecipitated proteins were eluted and denatured with 2 × Laemmli buffer and boiled for 5 min. Protein samples were then separated by SDS-PAGE for 1 h at 150 V. Proteins were then transferred to PVDF membranes (Bio-Rad, Hercules, CA, United States) for 2 h at 100 V and blocked for 30 min in 1×fish gelatin (Biotium Inc., Fremont, CA, United States. After blocking, membranes were incubated with rabbit monoclonal anti-NAT1 antibody (ab109114, Abcam, Cambridge, United Kingdom) and mouse monoclonal anti-β-actin, as endogenous control (A2228, Sigma-Aldrich, St. Louis, MO, United States) overnight at 4°C with gentle agitation. The next day, the membranes were washed with TBST and incubated with secondary antibodies IRDye® 800 CW goat anti-rabbit and 680RD goat anti-mouse (LI-COR Biosciences, Lincoln, NE, United States) at room temperature for 1 hour. Finally, plates were washed with TBST and scanned using an Odyssey imaging system (LI-COR Biosciences, Lincoln, NE, United States). After detection of NAT1, the membranes were re-probed for acetyl-lysine-HRP detection using the antibody provided in the kit. Chemiluminescent detection was captured using a Fotodyne imaging system (Fotodyne Inc., Hartland, WI, United States). Densitometric analysis on the immunoblots was performed using ImageJ ([Schneider et al., 2012]) software or IMAGE STUDIO Lite software (LI-COR Biosciences, Lincoln, NE, United States), which enables quantitative analysis of blotting signals. NAT1 and acetyl-lysine levels were normalized to β-actin.

NAT1 [6] = test: NAT1 acetylation status (acetyl-lysine immunoprecipitation, AcNAT1/NAT1) in ZR-75-1 cells; type: cell-based, human; details: 48 h; for acetylation of NAT1 lysine residues, effect in words: vs vehicle; for NAT1 acetylation status, fold increase: vs vehicle control
Method: as §5

KDAC proteins = test: KDAC (Sirtuin / HDAC) activity, both breast cancer cell lines (discussion summary); type: cell-based, human; details: MDA-MB-231 and ZR-75-1 cell lines
NAT1b transcript [7] = test: NAT1b mRNA quantification by qRT-PCR in ZR-75-1 cells; type: cell-based, human; details: 48 h
Method: as §2, §3

HDAC [8] = details: ZR-75-1 cells, vs vehicle control
NAT1b transcript [9] = tested on: NAT1b transcript; design: method as in Paterson et al., 2011; details: after treatment with TSA; ref Paterson et al., 2011; cited from earlier work
NAT1 [10] = tested on: NAT1; design: method as in Paterson et al., 2011; details: after treatment with TSA; ref Paterson et al., 2011; cited from earlier work
NAT1 [11] = tested on: NAT1; design: method as in Butcher et al., 2020; details: ref Butcher et al., 2020; cited from earlier work
[12] = MDA-MB-231 cells, 48 h, vs vehicle control
[13] = MDA-MB-231 cells, 48 h treatment, vs vehicle control; read-out: IC50, Sirtuin deacetylase activity
[14] = ZR-75-1 cells, 48 h, vs vehicle control
[15] = ZR-75-1 cells, 48 h treatment, vs vehicle control; read-out: IC50, Sirtuin deacetylase activity
[16] = ZR-75-1 cells, 100 µM, vs vehicle
[17] = read-out: IC50, HDAC deacetylase activity, 48 h treatment

Structure (SMILES)	lowest concentration that significantly decreased HDAC deacetylase activity (HDAC [1]) [µM]	lowest concentration that significantly increased NAT1 N-acetylation of PABA (NAT1 [3]) [µM]	lowest concentration that significantly upregulated NAT1 catalytic activity (NAT1 [4]) [µM]	lowest concentration that significantly decreased Sirtuin activity (Sirtuin; [12]) [µM]	IC50 (Sirtuin; [13]) [µM]	lowest concentration that significantly inhibited Sirtuin deacetylase activity (Sirtuin; [14]) [µM]	IC50 (Sirtuin; [15]) [µM]	NAT1b transcript expression, effect in words (NAT1b transcript [2]; 100 µM, vs vehicle)	Ki (NAT1 [3]) [µM]	lowest concentration that significantly decreased NAT1 catalytic activity (NAT1 [3]) [µM]	Ki (NAT1 [4]) [µM]	lowest concentration that significantly decreased NAT1 catalytic activity (NAT1 [4]) [µM]	acetylated lysine residues of NAT1, effect in words (NAT1 [5]; 100 µM)	acetylation of NAT1 lysine residues, effect in words (NAT1 [6]; 100 µM)	dose producing inhibition of KDAC enzymatic activity (KDAC proteins) [µM]	NAT1b transcript expression, effect in words (NAT1b transcript [7]; [16])	also measured
O=C(CCCCCCC(=O)Nc1ccccc1)NO [SAHA, Vorinostat]	10	10	10														NAT1b transcript expression, effect in words (NAT1b transcript [2]; 10 and 100 µM, vs vehicle): more NAT1b transcript expression
N#CC(=Cc1ccc(-c2cc(Cl)ccc2Cl)o1)C(=O)Nc1cccc2ncccc12 [AGK2, 2-cyano-3-[5-(2,5-dichlorophenyl)-2-furanyl]-N-5-quinolinyl-2-propenamide]				10	50.1	10	27.6	significantly decreased	10.8	1	0.55	1	increased	increased	10		
NC(=O)C1CCCc2c1[nH]c1ccc(Cl)cc21 (stereo not drawn) [EX527, 6-chloro-2,3,4,9-tetrahydro-1H-carbazole-1-carboxamide]				1		1		significantly decreased	7.03	0.1	0.39	0.01	increased		1	significant decrease	IC50 (Sirtuin; read-out: IC50, Sirtuin deacetylase activity; MDA-MB-231 cells, 48 h treatment, vs vehicle control): 40.6 µM; IC50 (Sirtuin; read-out: IC50, Sirtuin deacetylase activity; ZR-75-1 cells, 48 h treatment, vs vehicle control): 11.8 µM
CC(/C=C/C(=O)NO)=C\[C@@H](C)C(=O)c1ccc(N(C)C)cc1 [TSA, Trichostatin A]	1	1	1												0.1		IC50 (HDAC [1]; [17]): 13.5 µM; NAT1b transcription, fold increase (NAT1b transcript [2]; 0.01 µM): 3 fold; NAT1b transcript expression, fold increase (NAT1b transcript [2]; 10 µM, vs vehicle): over 10 fold; lowest dose with significant increase of NAT1b transcription (NAT1b transcript [2]): 0.01 µM; NAT1b message expression, fold increase (NAT1b transcript [7]; ZR-75-1 cells, 1 µM): 6 fold; NAT1b transcript expression, fold increase (NAT1b transcript [7]; [16]): 9 fold; NAT1b transcript expression, effect in words (NAT1b transcript [7]; ZR-75-1 cells, 1, 10 and 100 µM, vs vehicle): more robust induction; lowest dose with significant upregulation of NAT1b message expression (NAT1b transcript [7]; ZR-75-1 cells): 1 µM; NAT1 acetylation, fold increase (NAT1 [5]; 10 µM): 1.6 fold; NAT1 acetylation, fold increase (NAT1 [5]; 100 µM): 2.1 fold; NAT1 acetylation status, fold increase (NAT1 [6]; 10 µM): 1.8 fold; NAT1 acetylation status, fold increase (NAT1 [6]; 100 µM): 2.4 fold; lowest concentration that significantly inhibited HDAC enzymatic activity (HDAC [8]; 48 h): 0.1 µM; IC50 (HDAC [8]; [17]): 6.4 µM; NAT1b transcription (NAT1b transcript [9]): upregulation; NAT1 catalytic activity (NAT1 [10]): increase
NC(=O)c1cccnc1 [nicotinamide]																	acetylation of NAT1 (NAT1 [11]): enhanced
CC(NC(=O)c1ccccc1N=Cc1c(O)ccc2ccccc12)c1ccccc1 (stereo not drawn) [Sirtinol, 2-[[(2-hydroxy-1-naphthalenyl)methylene]amino]-N-(1-phenylethyl)-benzamide]				100	61.7	10	35.8	significantly decreased	21.9	1	0.02	0.1	increased	increased	10	significant decrease	acetylation of NAT1 lysine residues, effect in words (NAT1 [6]; 10 µM): increased
